For this experiment, the system named is P388 leukemia ip, CD2F1 mice, survival T/C. As to the kind of experiment: NCI In Vivo Anticancer Drug Screen. Data for tumor model P388 Leukemia (intraperitoneal) in CD2F1 (CDF1) mice. Conditions: endpoint: median survival time, higher = longer survival. The gist of the method: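 Mice carrying the transplanted tumor received test compound or vehicle. Survival was recorded in each group, and the value is the treated-group measurement divided by that of the vehicle-treated control group.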

Setting [1] is: dose: 200.0 mg/kg/injection, schedule: Q01DX009 (ip), vehicle: distilled water + Tween-80.
The mark [2] stands for this setting: dose: 400.0 mg/kg/injection, schedule: Q01DX009 (ip), vehicle: distilled water + Tween-80.
Setting [3] is: dose: 50.0 mg/kg/injection, schedule: Q01DX005 (ip), vehicle: saline with Tween-80.
The mark [4] stands for this setting: dose: 100.0 mg/kg/injection, schedule: Q01DX005 (ip), vehicle: saline with Tween-80.
The mark [5] stands for this setting: dose: 200.0 mg/kg/injection, schedule: Q01DX005 (ip), vehicle: saline with Tween-80.
[6] abbreviates: dose: 60.0 mg/kg/injection, schedule: Q01DX005 (ip), vehicle: saline with Tween-80.
Setting [7] is: dose: 120.0 mg/kg/injection, schedule: Q01DX005 (ip), vehicle: saline with Tween-80.
The mark [8] stands for this setting: dose: 240.0 mg/kg/injection, schedule: Q01DX005 (ip), vehicle: saline with Tween-80.
Setting [9] is: dose: 25.0 mg/kg/injection, schedule: Q04DX003 (ip), vehicle: saline.
[10] abbreviates: dose: 50.0 mg/kg/injection, schedule: Q04DX003 (ip), vehicle: saline.
Setting [11] is: dose: 100.0 mg/kg/injection, schedule: Q04DX003 (ip), vehicle: saline.
[12] abbreviates: dose: 400.0 mg/kg/injection, schedule: Q04DX003 (ip), vehicle: saline.
The mark [13] stands for this setting: dose: 50.0 mg/kg/injection, schedule: Q01DX009 (ip), vehicle: Klucel (hydroxypropylcellulose) (HPC).
The mark [14] stands for this setting: dose: 100.0 mg/kg/injection, schedule: Q01DX009 (ip), vehicle: Klucel (hydroxypropylcellulose) (HPC).
Where [15] appears, read: dose: 200.0 mg/kg/injection, schedule: Q01DX009 (ip), vehicle: Klucel (hydroxypropylcellulose) (HPC).

Values joined by “and” are separate entries in the source; they are usually repeats but may differ in a detail not shown here. Equal entries are not always repeated. Toxic doses and inconclusive results are not listed.

On to `NC(=S)N/N=C\c1ncccc1OCc1cccc(N)c1`, for which the T/C (dose: 12.5 mg/kg/injection, schedule: Q01DX009 (ip), vehicle: distilled water + Tween-80) is 122 % of control; the T/C (dose: 12.5 mg/kg/injection, schedule: Q01DX009 (ip), vehicle: other) was 111 % of control; the T/C (dose: 25.0 mg/kg/injection, schedule: Q01DX009 (ip), vehicle: other) is 120 % of control and 124 % of control; the T/C under setting [1] is 116 % of control; the T/C (dose: 200.0 mg/kg/injection, schedule: Q01DX009 (ip), vehicle: other) is 152 % of control; the T/C under setting [2] was 100 % of control.
Consider `O=[N+]([O-])/C=C/c1cc2c(ccc3ccccc32)[nH]1`, for which the T/C under setting [3] was 91 % of control, the T/C under setting [4] was 93 % of control and the T/C under setting [5] is 99 % of control.
`COC(=O)C1=C(C(=O)OC)CCC1`: the T/C is, setting by setting: (dose: 25.0 mg/kg/injection, schedule: Q01DX009 (ip), vehicle: distilled water + Tween-80) 97 % of control; (dose: 50.0 mg/kg/injection, schedule: Q01DX009 (ip), vehicle: distilled water + Tween-80) 91 % of control; (dose: 100.0 mg/kg/injection, schedule: Q01DX009 (ip), vehicle: distilled water + Tween-80) 100 % of control; under setting [1], 105 % of control; under setting [2], 100 % of control.
Take `COc1ccc(C2CC(CO)ON2c2ccccc2)cc1` (configuration not stated): the T/C is, setting by setting: under setting [6], 98 % of control; under setting [7], 98 % of control; under setting [8], 99 % of control.
Regarding `CC(=O)N1CCCC1C(=O)O` (configuration not stated), the T/C is, setting by setting: under setting [9], 102 % of control; under setting [10], 112 % of control; under setting [11], 105 % of control and 87 % of control; under setting [12], 101 % of control.
As for `C=CCOC1C=C(C)C(=O)O1` (configuration not stated), the T/C by setting is: (dose: 41.5 mg/kg/injection, schedule: Q01DX005 (ip), vehicle: saline with Tween-80) 100 % of control; (dose: 83.0 mg/kg/injection, schedule: Q01DX005 (ip), vehicle: saline with Tween-80) 103 % of control; (dose: 166.0 mg/kg/injection, schedule: Q01DX005 (ip), vehicle: saline with Tween-80) 109 % of control.
On to `[O-]c1nn(-c2ccccc2)n[n+]1-c1ccccc1`, for which the T/C is, setting by setting: (dose: 100.0 mg/kg/injection, schedule: Q01DX001 (ip), vehicle: Klucel (hydroxypropylcellulose) (HPC)) 97 % of control; (dose: 200.0 mg/kg/injection, schedule: Q01DX001 (ip), vehicle: Klucel (hydroxypropylcellulose) (HPC)) 100 % of control; (dose: 400.0 mg/kg/injection, schedule: Q01DX001 (ip), vehicle: Klucel (hydroxypropylcellulose) (HPC)) 94 % of control.
Take `CCOC(=O)CCS(=O)c1ccccc1` (configuration not stated): the T/C runs as follows: under setting [13], 114 % of control; under setting [14], 109 % of control; under setting [15], 104 % of control.
For the molecule `COc1cc(CC(OC)OC)no1`, the T/C under setting [6] is 102 % of control, the T/C under setting [7] was 103 % of control and the T/C under setting [8] was 102 % of control.
`Cn1ccn(CCCCCCn2ccn(C)c2=S)c1=S`: the T/C reads like this: (dose: 3.12 mg/kg/injection, schedule: Q01DX009 (ip), vehicle: saline) 103 % of control; (dose: 6.25 mg/kg/injection, schedule: Q01DX009 (ip), vehicle: saline) 96 % of control; (dose: 12.5 mg/kg/injection, schedule: Q01DX009 (ip), vehicle: suspension in saline) 92 % of control.
As for `O=C1CCC(N(Cc2ccccc2)Cc2ccccc2)C(=O)O1` (configuration not stated), the T/C is, setting by setting: (dose: 100.0 mg/kg/injection, schedule: Q04DX003 (ip), vehicle: Klucel (hydroxypropylcellulose) (HPC)) 112 % of control; (dose: 200.0 mg/kg/injection, schedule: Q04DX003 (ip), vehicle: Klucel (hydroxypropylcellulose) (HPC)) 109 % of control; (dose: 400.0 mg/kg/injection, schedule: Q04DX003 (ip), vehicle: Klucel (hydroxypropylcellulose) (HPC)) 100 % of control.
Turning to `Nc1nc2c(ncn2C2OC(CO)C(O)C2N)c(=O)[nH]1` (configuration not stated), the T/C was 106 % of control and 97 % of control (dose: 25.0 mg/kg/injection, schedule: Q01DX009 (ip), vehicle: saline with Tween-80); 103 % of control (dose: 25.0 mg/kg/injection, schedule: Q04DX003 (ip), vehicle: saline with Tween-80); 101 % of control under setting [9]; 100 % of control and 107 % of control (dose: 50.0 mg/kg/injection, schedule: Q01DX009 (ip), vehicle: saline with Tween-80); 96 % of control (dose: 50.0 mg/kg/injection, schedule: Q04DX003 (ip), vehicle: saline with Tween-80); 104 % of control under setting [10]. The T/C is 106 % of control (dose: 100.0 mg/kg/injection, schedule: Q01DX009 (ip), vehicle: saline with Tween-80); 101 % of control (dose: 100.0 mg/kg/injection, schedule: Q04DX003 (ip), vehicle: saline with Tween-80); 100 % of control and 105 % of control under setting [11]; 100 % of control (dose: 200.0 mg/kg/injection, schedule: Q01DX009 (ip), vehicle: saline with Tween-80); 104 % of control (dose: 200.0 mg/kg/injection, schedule: Q04DX003 (ip), vehicle: saline with Tween-80); 98 % of control and 108 % of control (dose: 200.0 mg/kg/injection, schedule: Q04DX003 (ip), vehicle: saline). Also, the T/C was 101 % of control (dose: 400.0 mg/kg/injection, schedule: Q04DX003 (ip), vehicle: saline with Tween-80); 105 % of control and 107 % of control under setting [12].
Regarding `O=C(Nc1ccc(Cl)cc1)N1c2ccccc2SC1c1ccco1` (configuration not stated), the T/C under setting [3] was 89 % of control, the T/C under setting [4] was 88 % of control and the T/C under setting [5] was 87 % of control.
In the case of `CCOC(=O)c1csc(=S)[nH]1`, the T/C under setting [6] is 107 % of control, the T/C under setting [7] was 101 % of control and the T/C under setting [8] was 100 % of control.
As for `O=C1CCC(c2nnc(COc3ccc(Cl)cc3)o2)N1Cc1ccccc1` (configuration not stated), the T/C by setting is: (dose: 100.0 mg/kg/injection, schedule: Q01DX001 (ip), vehicle: saline with Tween-80) 99 % of control; (dose: 200.0 mg/kg/injection, schedule: Q01DX001 (ip), vehicle: saline with Tween-80) 102 % of control; (dose: 400.0 mg/kg/injection, schedule: Q01DX001 (ip), vehicle: saline with Tween-80) 98 % of control.
For the molecule `Cc1ccc2c(I)cc(I)c(O)c2n1`, the T/C runs as follows: under setting [13], 107 % of control; under setting [14], 102 % of control; under setting [15], 100 % of control.
`NC(=O)/C=C/C(=O)NC(=O)Cc1ccccc1`: the T/C runs as follows: (dose: 1.5 mg/kg/injection, schedule: Q01DX009 (ip), vehicle: saline with Tween-80) 109 % of control; (dose: 3.0 mg/kg/injection, schedule: Q01DX009 (ip), vehicle: saline with Tween-80) 110 % of control and 119 % of control; (dose: 6.0 mg/kg/injection, schedule: Q01DX009 (ip), vehicle: saline with Tween-80) 109 % of control and 116 % of control.
Consider `COC(=O)CN(C)P(=O)(N1CC1)N1CC1`, for which the T/C was 107 % of control (dose: 1.87 mg/kg/injection, schedule: Q01DX005 (ip), vehicle: saline); 124 % of control (dose: 3.75 mg/kg/injection, schedule: Q01DX005 (ip), vehicle: saline); 198 % of control (dose: 7.5 mg/kg/injection, schedule: Q01DX005 (ip), vehicle: saline with Tween-80); 197 % of control (dose: 15.0 mg/kg/injection, schedule: Q01DX005 (ip), vehicle: saline).
In the case of `COc1ccc(/C=C/C(C)=N/NC(N)=S)cc1`, the T/C was 113 % of control (dose: 6.0 mg/kg/injection, schedule: Q01DX005 (ip), vehicle: Klucel + Tween-80) and 104 % of control (dose: 12.0 mg/kg/injection, schedule: Q01DX005 (ip), vehicle: Klucel + Tween-80).
For `CS(=O)(=O)C(CCC(=O)c1ccc2ccccc2c1)C(=O)c1ccccc1` (configuration not stated), the T/C runs as follows: (dose: 50.0 mg/kg/injection, schedule: Q01DX005 (ip), vehicle: Klucel (hydroxypropylcellulose) (HPC)) 88 % of control; (dose: 100.0 mg/kg/injection, schedule: Q01DX005 (ip), vehicle: Klucel (hydroxypropylcellulose) (HPC)) 89 % of control; (dose: 200.0 mg/kg/injection, schedule: Q01DX005 (ip), vehicle: Klucel (hydroxypropylcellulose) (HPC)) 92 % of control.
